System: S. pneumoniae (strain #0100993)
Assay: Sub-lethal influenza infection followed by S. pneumoniae co-infection, survival (LD50) after PDE 4 inhibitor pretreatment
Assay type: in vivo, mice

Structure (SMILES): COc1ccc([C@]2(C#N)CC[C@@H](C(=O)O)CC2)cc1OC1CCCC1 [Ariflo, cis-4-cyano-4-[3-(cyclopentyloxy)-4-methoxyphenyl]cyclohexane-1-carboxylic acid]
- LD50 of S. pneumoniae in treated mice (10 mg/kg orally once daily on days 0 to 9, S. pneumoniae challenge IN on day 9, control diluent LD50 72): 252 cfu/mouse
- LD50 of S. pneumoniae in treated mice (30 mg/kg orally once daily on days 0 to 9, S. pneumoniae challenge IN on day 9, control diluent LD50 72): 221 cfu/mouse
